In US11766478B2, “Methods for enhancing antigen-specific immune responses” (priority 2015, dated 2023):

System: TC-1 tumors
Assay: In vivo tumor treatment experiment, TC-1 tumor-bearing mice (tumor volume, survival)
Design: species or system C57BL/6 mice
Conditions: combinatorial treatment with cisplatin; compared to cisplatin alone
Method: Left panel is representative flow cytometry analysis. […] IgG antibody was used as a control. […] Left panel is representative flow cytometry.
For in vivo tumor treatment experiment using only protein, 1×10^5 TC-1 cells were injected subcutaneously into C57BL/6 mice (10 per group). After 3 days, 100 μg of each protein was injected intravenously three times with 3 day intervals. Mice were monitored for tumor growth by palpation and inspection twice a week. For in vivo combined tumor treatment experiments, 1×10^5 TC-1 cells or 5×10^5 CT 26 cells were subcutaneously injected into C57BL/6 mice (10 per group) or BALB/c mice. After 5 days, cisplatin (5 mg/kg) or saline (control) was intraperitoneally injected two times at a 3 day interval. 6 days after tumor challenge, mice received 100 μg of protein each, intravenously injected three times with 3 day intervals.

## AnnexinV: Annexin V protein alone, purified from E. coli, used as control
  therapeutic anti-tumor effect in TC-1 tumor bearing mice: did not generate a significantly better therapeutic anti-tumor effect
